Assay results as given in patent US11192863B2, “Antiviral compounds and methods” (Biotron Limited, priority 2003, dated 2021).
Like-named read-outs stand apart in the source and are kept apart here.

Experiments:
[1] = system: MHV (strain MHV-A59); assay: microbe, parasite or virus in culture; conditions: Murine coronavirus, L929, read-out: Percent reduction in Plaque number/# experiments
[2] = target: SARS-CoV E protein (Severe acute respiratory syndrome coronavirus, UniProt P59637); assay type: cell-based
[3] = target: Vpu protein (Human immunodeficiency virus type 1 group M subtype B, UniProt P05919); conditions: for Vpu Inhibition (score/# of times tested): halo of growth score between zero and six, XL1-blue E. coli with pPL-Vpu, no adenine, 37° C.
[4] = system: MHV (strain MHV-A59); conditions: L929 cells
[5] = target: 229E-CoV E-protein (Human coronavirus 229E, UniProt P19741); assay: Bacterial bio-assay for 229E-CoV E-protein; conditions: halo of growth score; E. coli expressing E protein at 37° C.
[6] = system: HIV; assay type: cell-based; conditions: Table 19b; yes/no
[7] = system: porcine respiratory coronavirus (PRCV) strain AR310; assay: PRCV plaque assay in ST cells; assay type: cell-based; conditions: Alphacoronavirus 1; PRCV plaques in ST cells
[8] = system: human coronavirus OC43; assay: microbe, parasite or virus in culture; assay type: cell-based; conditions: Betacoronavirus 1, OC43, MRC5, 120 h, MRC-5 cells, 5 days post infection
[9] = system: bovine coronavirus (BCV); assay: BCV plaque assay in MDBK cells; assay type: cell-based; conditions: Betacoronavirus 1; BCV plaques in MDBK cells
[10] = system: SARS-CoV (Hong Kong strain); assay type: cell-based, SARS coronavirus; conditions: for Titre (% control): 48 hours; for Average TCID50 (×10^6): 48 hours post infection
[11] = target: SARS E protein ion channel (Severe acute respiratory syndrome coronavirus, UniProt P59637); assay type: biochemical, SARS-CoV
SARS E protein ion channel, sequence (P59637 whole entry, looked up): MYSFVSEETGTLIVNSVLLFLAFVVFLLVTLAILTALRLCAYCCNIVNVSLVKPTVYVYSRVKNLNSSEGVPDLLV

SARS-CoV E protein, sequence (P59637 whole entry, looked up): as above
Vpu protein, sequence (P05919 whole entry): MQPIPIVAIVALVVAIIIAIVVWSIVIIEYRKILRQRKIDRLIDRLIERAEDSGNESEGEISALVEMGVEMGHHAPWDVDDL
229E-CoV E-protein, sequence (P19741 whole entry): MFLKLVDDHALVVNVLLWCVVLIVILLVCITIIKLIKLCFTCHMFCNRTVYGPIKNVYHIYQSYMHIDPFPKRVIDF

## CCCCC/C=C/c1cccc(/C=C/C(=O)NC(=N)N)c1 [3-(trans-hept-1-en-1-yl)cinnamoylguanidine]
[1]
  inhibition at 1 µM: -6%
  inhibition at 10 µM: 23%
[2]
  SARS E protein Inhibition (score/# of times tested): 1.71/1 score
[3]
  Vpu Inhibition (score/# of times tested): 0.81/2 score

## N=C(NC(=O)CCc1ccccc1)NC(=O)CCc1ccccc1 [N,N′-Bis(3-phenylpropanoyl)guanidine, N,N-Bis(3-phenylpropanoyl)guanidine]
[1]
  inhibition at 1 µM: -8%
[3]
  Vpu Inhibition (score/# of times tested): 0.1/2 score
[4]; 10 uM
  Percent reduction in Plaque number/# experiments: 30/4%
[4]; 20 uM
  Percent reduction in Plaque number/# experiments: 41/3%
[5]
  229E E protein Inhibition (score): 0.3 score

## N=C(N)NC(=O)/C=C/c1ccco1 [(2-Furanacryloyl)guanidine]
[1]
  inhibition at 1 µM: -3%
[2]
  SARS E protein Inhibition (score/# of times tested): 0.82/2 score
[3]
  Vpu Inhibition (score/# of times tested): 0.94/2 score
[4]; 10 uM
  Percent reduction in Plaque number/# experiments: 63/2%
[4]; 20 uM
  Percent reduction in Plaque number/# experiments: 67/2%

## N=C(N)NC(=O)Cc1cccc2ccccc12 [2-(1-napthyl)acetoylguanidine]
[1]
  inhibition at 20 µM: -19%
[2]
  SARS E protein Inhibition (score/# of times tested): 1.50/1 score
[3]
  Vpu Inhibition (score/# of times tested): 1.56/2 score
[4]; 1 uM
  Percent reduction in Plaque number/# experiments: 11/1%
[4]; 10 uM
  Percent reduction in Plaque number/# experiments: 02/1%
[5]
  229E E protein Inhibition (score): 0.8 score

## N=C(NC(=O)c1ccc2cc(O)ccc2c1)Nc1ccccc1 [N-(6-Hydroxy-2-napthoyl)-N′-phenylguanidine]
[1]
  inhibition at 1 µM: -5%
[2]
  SARS E protein Inhibition (score/# of times tested): 1.35/3 score
[3]
  Vpu Inhibition (score/# of times tested): 2.06/2 score
[4]; 10 uM
  Percent reduction in Plaque number/# experiments: 39/1%
[4]; 20 uM
  Percent reduction in Plaque number/# experiments: 43/1%

## COc1ccc2cc(C(=O)NC(=N)N)ccc2c1 [6-methoxy-2-naphthoylguanidine]
[6]
  At least 1x log reduction seen in p24 assay?: yes
[7]
  EC50: 0.04 µM
[2]
  SARS E protein Inhibition (score/# of times tested): 3.13/3 score
[3]; Table 19a, rank among 12 compounds, 1 = highest score
  Bacterial assay rank order: 5.5
[3]; Table 19b
  Bacterial assay rank order: 5.5
  Vpu Bacterial score: 2.9
[3]
  Vpu Inhibition (score/# of times tested): 2.9/4 score
[8]
  inhibition at 2.5 µM: 47%
[4]; 1 uM
  Percent reduction in Plaque number/# experiments: 34/3%
[4]; 10 uM
  Percent reduction in Plaque number/# experiments: 56/3%
[4]; 20 uM
  Percent reduction in Plaque number/# experiments: 88/3%
[9]
  EC50: 9 µM
[10]; Compound Concentration 2 uM
  Titre (% control): 118 % control
  Average TCID50 (×10^6): 6.35 ×10^6
[10]; Compound Concentration 10 uM
  Titre (% control): 111 % control
  Average TCID50 (×10^6): 5.95 ×10^6
[5]
  229E E protein Inhibition (score): 1.4 score
[11]
  % Reduction of average current by 100 μM: 92 ± 16%

## N=C(N)NC(=O)/C=C/c1cccc(C2=CCCCC2)c1 [3-(cyclohex-1-en-1-yl)cinnamoylguanidine]
[1]
  inhibition at 1 µM: -19%
[2]
  SARS E protein Inhibition (score/# of times tested): 3.75/1 score
[3]
  Vpu Inhibition (score/# of times tested): 2.5/2 score
[4]; 10 uM
  Percent reduction in Plaque number/# experiments: 2/2%
[5]
  229E E protein Inhibition (score): 2.4 score
